Results: ChEMBL document CHEMBL2346598, “Synthesis and pharmacological characterization of 2-(acylamino)thiophene derivatives as metabolically stable, orally effective, positive allosteric modulators of the GABAB receptor” (J Med Chem, 2013)
Activity calls are given as the source filed them. The calls are words filed in the database; no cut-off is given here.

What was measured:
Rattus norvegicus [1] = species on record: Rattus norvegicus; assay: Positive allosteric modulation of GABAB receptor in rat cortical membranes assessed as stimulation of [35S]GTPgammaS binding up to 100 uM after 30 mins by liquid scintillation counting analysis; format: functional, cell membranes; conditions: Membrane
Rattus norvegicus [2] = species on record: Rattus norvegicus; assay: Positive allosteric modulation of GABAB receptor in rat cortical membranes assessed as potentiation of GABA-induced [35S]GTPgammaS binding after 30 mins by liquid scintillation counting analysis; format: functional, cell membranes; conditions: Membrane
NIH3T3 = assay: Cytotoxicity against mouse NIH/3T3 cells after 24 hrs by neutral red staining-based UV/visible spectrophotometric analysis; format: cell-based; conditions: NIH3T3, 24 h
Rattus norvegicus [3] = species on record: Rattus norvegicus; assay: Positive allosteric modulation of GABAB receptor in rat cortical membranes assessed as potentiation of GABA-induced [35S]GTPgammaS binding at 25 uM after 30 mins by liquid scintillation counting analysis relative to GABA; format: functional, cell membranes; conditions: Membrane
Rattus norvegicus [4] = species on record: Rattus norvegicus; assay: Positive allosteric modulation of GABAB receptor in rat cortical membranes assessed as potentiation of GABA-induced [35S]GTPgammaS binding at 2.5 uM after 30 mins by liquid scintillation counting analysis relative to GABA; format: functional, cell membranes; conditions: Membrane

| Structure (SMILES) | Activity (Rattus norvegicus [1]) | Activity (Rattus norvegicus [2]) | Activity (Rattus norvegicus [3]) [%] | Activity (Rattus norvegicus [4]) [%] | IC50 (NIH3T3) [µM] |
| --- | --- | --- | --- | --- | --- |
| CCc1c(C)sc(NC(=O)c2ccc(-c3cccnc3)cc2)c1C(=O)OC | inactive | inactive |  |  |  |
| Cc1ncc(-c2ccc(C(F)(F)F)cc2)c(N[C@@H]2C[C@H]3CC[C@@H]2C3)n1 |  |  |  |  | 35 |
| CCc1c(C)sc(NS(=O)(=O)C2CCCCC2)c1C(=O)OC | inactive | inactive |  |  |  |
| CCc1c(C)sc(NC(=O)c2ccc(Cl)cc2)c1C(=O)OC(C)(C)C | inactive | inactive |  |  |  |
| CCc1c(C)sc(NC(=O)c2ccc(-c3ccccc3)cc2)c1C(=O)OC | inactive | inactive |  |  |  |
| CCCOC(=O)c1c(NC(=O)c2ccc(Cl)cc2)sc(C)c1CC | inactive | inactive |  |  |  |
| COC(=O)c1c(NC(=O)c2ccccc2)sc2c1CCCC2 | inactive | inactive |  |  |  |
| COC(=O)c1ccsc1NC(=O)c1ccccc1 | inactive | inactive |  |  |  |
| CCc1c(C)sc(NC(=O)C23CC4CC(CC(C4)C2)C3)c1C(=O)OC |  |  | 22 | 9.2 | 32 |
| COC(=O)c1c(NC(=O)C2CCCCC2)sc2c1CCCC2 | inactive | inactive | 12 | -5.6 | 62 |

Further lines, with some results ahead:

| Activity (Rattus norvegicus [1]) | Activity (Rattus norvegicus [2]) | Activity (Rattus norvegicus [3]) [%] | Activity (Rattus norvegicus [4]) [%] | Structure (SMILES) | IC50 (NIH3T3) [µM] |
| --- | --- | --- | --- | --- | --- |
| inactive | inactive |  |  | CCc1c(C)sc(NC(=O)C(C)(C)C)c1C(=O)OC |  |
| inactive | inactive | 11 | 4 | CCc1c(C)sc(NC(=O)c2cccc(Cl)c2)c1C(=O)OC |  |
| inactive | inactive |  |  | CCc1c(C)sc(NC(C)=O)c1C(=O)OC |  |
| inactive | inactive | 12 | 3.1 | CCc1c(C)sc(NC(=O)c2ccccc2)c1C(=O)OC | 66 |
| inactive | inactive |  |  | CCCOC(=O)c1c(NC(=O)c2ccc(C)cc2)sc(C)c1CC |  |
| inactive | inactive |  |  | CCc1c(C)sc(NC(=O)C2CC2)c1C(=O)OC |  |
| inactive | inactive |  |  | CCc1c(C)sc(NC(=O)c2ccc([N+](=O)[O-])cc2)c1C(=O)OC |  |
